Measurements published in PubChem BioAssay (NCI).
Several values for one entry are separate records, joined by “and”; a condition that tells them apart may be missing. Identical values can stand only once.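 Interpolation was linear, between the two tested concentrations surrounding the appropriate level; five concentrations were tested over 48 hours in 96-well plates. GI50 is the concentration that inhibits growth by half. TGI: total growth inhibition.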

What was measured:
Experiment in all cases: NCI tumour cell line growth inhibition, 48 h
DMS 114 small cell lung = tested on: DMS 114 small cell lung
KM20L2 colon = tested on: KM20L2 colon
SNB-78 CNS = tested on: SNB-78 CNS
HCT-15 colon = tested on: HCT-15 colon
HL-60(TB) leukemia = tested on: HL-60(TB) leukemia
DMS 273 small cell lung = tested on: DMS 273 small cell lung
SK-MEL-5 melanoma = tested on: SK-MEL-5 melanoma
K-562 leukemia = tested on: K-562 leukemia
SF-295 CNS = tested on: SF-295 CNS
ACHN renal = tested on: ACHN renal
OVCAR-8 ovarian = tested on: OVCAR-8 ovarian
PC-3 prostate = tested on: PC-3 prostate

Row | Structure (SMILES) | TGI (DMS 114 small cell lung) [µM] | TGI (KM20L2 colon) [µM] | TGI (SNB-78 CNS) [µM] | TGI (HCT-15 colon) | TGI (HL-60(TB) leukemia) | TGI (DMS 273 small cell lung) [µM] | TGI (SK-MEL-5 melanoma) | TGI (K-562 leukemia) [µM] | TGI (SF-295 CNS) | TGI (ACHN renal) | TGI (OVCAR-8 ovarian) | GI50 (HL-60(TB) leukemia) [µM] | GI50 (K-562 leukemia) [µM] | GI50 (HCT-15 colon) | GI50 (PC-3 prostate) | TGI (PC-3 prostate) | GI50 (SK-MEL-5 melanoma) [µM] | GI50 (SF-295 CNS) | GI50 (ACHN renal) | GI50 (OVCAR-8 ovarian)
1 | COc1c(C(=O)c2ccc([N+](=O)[O-])cc2)cc(C(C)(C)C)cc1C(C)(C)C | 73.1 | > 100 | > 100 | > 100 µM | 47.2 µM | > 100 | 32.1 µM | > 100 | > 100 µM | > 100 µM | > 100 µM | – | – | – | – | – | – | – | – | –
2 | CCOC(=O)CSC(=O)NCCCl | > 100 | > 100 | > 100 | > 100 µM | > 100 µM | > 100 | – | > 100 | > 100 µM | > 100 µM | > 100 µM | 22.3 | 29 | – | – | – | – | – | – | –
3 | CC1=CC(=C(c2ccc(N)cc2)c2ccc(N)cc2)C=CC1=N | 12.9 | 17.6 | 9.89 | 45.1 µM and > 74.7 µM and > 100 µM | 3.51 µM and > 21.6 µM | – | 2.3 µM and 5.45 µM and 3.41 µM | – | 5.82 µM and 7.65 µM and 6.06 µM | 18.1 µM and 44.9 µM and 24.3 µM | 34.5 µM and 31.4 µM and 12.4 µM | 0.482 | 0.369 | 4.61 µM and 14.5 µM | 0.553 µM and 2.58 µM | 10.6 µM and 18.2 µM and 10.1 µM | 0.928 | 1.03 µM and 1.32 µM | 3.9 µM and 5.01 µM | 0.759 µM and 1.51 µM
4 | COc1ccc(C2CC(c3cc(C)ccc3O)=NC(N)=N2)cc1 (configuration not stated) | > 100 | > 100 | > 100 | > 100 µM | > 100 µM | > 100 | – | > 100 | > 100 µM | > 100 µM | > 100 µM | – | – | – | – | – | – | – | – | –
5 | N#Cc1c2c(c(N=P(c3ccccc3)(c3ccccc3)c3ccccc3)n3c1nc1ccccc13)CCCC2 | 59.4 | > 100 | 97.3 | > 100 µM | 24.8 µM | 56.1 | 27.3 µM | 38.2 | > 100 µM | 67.5 µM | > 100 µM | – | – | – | – | – | – | – | – | –
6 | CCCCCCCCCCCCCC(=O)OCC1OC(n2cc(F)c(=O)[nH]c2=O)C(NC(=O)OCc2ccccc2)C(OC(=O)CCCCCCCCCCCCC)C1O (configuration not stated) | > 100 | > 100 | > 100 | > 100 µM | > 100 µM | > 100 | > 100 µM | > 100 | > 100 µM | > 100 µM | > 100 µM | – | – | – | – | – | – | – | – | –
7 | NS(=O)(=O)c1ccc(NC2=CC(=O)C(=O)c3ccccc32)cc1 | > 100 | > 100 | > 100 | > 100 µM | > 100 µM | > 100 | > 100 µM | > 100 | > 100 µM | > 100 µM | > 100 µM | – | – | – | – | – | – | – | – | –
8 | O=C1c2ccccc2C(=O)N1CCN(CCN1C(=O)c2ccccc2C1=O)Cn1cccn1 | 38.3 | > 100 | > 100 | > 100 µM | 74.5 µM | > 100 | > 100 µM | > 100 | > 100 µM | > 100 µM | > 100 µM | – | – | – | – | – | – | – | – | –
9 | CC(=O)c1ccc(OCC(O)CO)cc1 (configuration not stated) | > 100 | > 100 | > 100 | > 100 µM | > 100 µM | > 100 | > 100 µM | > 100 | > 100 µM | > 100 µM | > 100 µM | – | – | – | – | – | – | – | – | –
10 | CC1CC(=O)Nc2ccccc2N1C(=O)CN1CCC(CCCCN(C)C)CC1 (configuration not stated) | > 100 | > 100 | > 100 | > 100 µM | > 100 µM | > 100 | > 100 µM | > 100 | > 100 µM | > 100 µM | > 100 µM | – | – | – | – | – | – | – | – | –
